The source made the active and inactive calls. The calls are words filed in the database; no cut-off is given here.
What was measured:
Assay type in all cases: functional, organism-based
Bacillus subtilis = experiment: Antibacterial activity against Bacillus subtilis 5262 ATCC 6633
Escherichia coli = experiment: Antibacterial activity against Escherichia coli
Staphylococcus aureus = experiment: Antibacterial activity against Staphylococcus aureus 209P ATCC 53156
Pseudomonas aeruginosa = experiment: Antibacterial activity against Pseudomonas aeruginosa

CO[C@]12C(C=O)=C[C@@H]3CC(C)(C)C[C@@H]3[C@@]1(C)C[C@H]2OC(=O)c1c(C)cc(O)cc1O was tested, and the Activity (Bacillus subtilis) was “Active”, the Activity (Escherichia coli) was “inactive” and the Activity (Staphylococcus aureus) was “Active”. For the same compound, the Activity (Pseudomonas aeruginosa) was “inactive”.
